Consider 14 compounds from patent publication US9340575B2, “Agonists and antagonists of the urotensinergic system” (INSTITUT NATIONAL DE LA RECHERCHE SCIENTIFIQUE, priority 2011, dated 2016).

Like-named read-outs stand apart in the source and are kept apart here. Marks after values point to notes of the source that are not given here. Bridge positions count the residues as written; N and C are the ends. Ends that are not written are not given here. Where only a bound is given, the exact number is not on record here.

The test system of one assay is rat thoracic aorta rings. In kind it is cell-based. The note with it: for Aortic Ring contraction pEC50: endothelium-denuded rat thoracic aorta; for Aortic Ring contraction Emax (%): percentage of contraction induced by KCl (40 mM); for Aortic Ring contraction Emax (%), maximum efficacy at 10^−5.5M: percentage of KCl (40 mM) contraction. As to the method: Binding and functional experiments were performed at least in triplicate and data, expressed as mean±S.E.M, were analyzed using the Prism software (Graph Pad Software, San Diego, Calif.). In all experiments, n represents the total number of animals studied or individual assays performed. The EC50, pEC50, pIC50 values as well as the Emax value were determined from the concentration-response curves using a sigmoidal dose-response fit with variable slope. […] The slope is calculated from the double reciprocal plot of equiactive concentrations of agonist in the presence and absence of antagonist.

The next assay relates to anaesthetized rats. As to the kind of experiment: Hemodynamic assessment (arterial blood pressure) in anaesthetized rats. In kind it is in vivo, rat. As to the method:
Male Sprague-Dawley rats, weighing 350-400 g, were anaesthetized by isoflurane inhalation delivered in 100% oxygen (1 l/min) from an Ohmeda Tec 4 anaesthetic vaporizer (Somatechnology, Inc., Bloomfield, Conn., USA). Anaesthesia was maintained by mask inhalation of isoflurane vaporized at concentrations of up to 3% in the induction phase, at 1.5% during acute surgical procedures and at 0.8-1.0% during experimental observations. […]. […] A period of stabilisation of 30 min was observed and the following experimental protocols were then performed and arterial blood pressure was evaluated. During isoflurane inhalation, no breathing complications or changes in blood pressure were observed. […].
In a preliminary study, individual rats received a single i.v. injection of hUII ranging from 1 to 30 nmol/kg. A dose-response curve, reflecting the effect of hUII on the change in blood pressure, was then determined.
In this set of experiments, five groups of rats were used. […] […]. Hemodynamic changes were continuously captured by the pressure probe over a period of 1 h. The maximum rise and the maximum drop in blood pressure was determined and analyzed using the PowerLab software (ADInstruments, Colorado Springs, Colo., USA).
In the control group, the rats received two doses of hUII (10 nmol/kg) with a 30 min interval between the first and second injection.

Assay [1] has as its target T1, human urotensin II receptor (UT) (Homo sapiens, UniProt Q9UKP6).
T1 construct: expressed in transfected cells; host or cells: CHO cells (CHO-UT), stably transfected, G418 selection
T1 sequence (Q9UKP6 1-389): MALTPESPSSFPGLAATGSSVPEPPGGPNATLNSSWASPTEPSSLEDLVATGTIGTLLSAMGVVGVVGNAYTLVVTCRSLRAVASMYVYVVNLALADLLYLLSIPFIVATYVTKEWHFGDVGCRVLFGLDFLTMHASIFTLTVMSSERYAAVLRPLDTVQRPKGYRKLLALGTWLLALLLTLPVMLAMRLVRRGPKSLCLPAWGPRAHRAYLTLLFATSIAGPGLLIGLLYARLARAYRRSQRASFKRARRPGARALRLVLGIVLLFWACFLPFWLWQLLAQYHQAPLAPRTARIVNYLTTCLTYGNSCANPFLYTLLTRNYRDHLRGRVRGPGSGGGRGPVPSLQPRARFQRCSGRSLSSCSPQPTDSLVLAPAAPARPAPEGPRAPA
The experiment in a line: Competitive radioligand binding on CHO-UT cells. As to the method:
Transfected CHO cells expressing the human urotensin receptor (CHO-UT) were maintained in Ham-F12 medium with 10% fetal bovine serum (FBS), 2 mM L-glutamine, 100 UI/mL each of penicillin and streptomycin, and 400 μg/mL G418. […] Binding assays were following known literature procedures using CHO cells stably transfected with hGPR14. […] After 90 min of incubation at room temperature, cells were washed, lysed, and the cell-bound radioactivity was quantified using a γ-counter. […] The cells were then washed, lysed, and the radioactivity counted on a γ-counter (1470 Automatic Gamma Counter, Perkin Elmer). Binding and functional experiments were performed at least in triplicate and data, expressed as mean±S.E.M, were analyzed using the Prism software (Graph Pad Software, San Diego, Calif.). In all experiments, n represents the total number of animals studied or individual assays performed. The EC50, pEC50, pIC50 values as well as the Emax value were determined from the concentration-response curves using a sigmoidal dose-response fit with variable slope. […] The slope is calculated from the double reciprocal plot of equiactive concentrations of agonist in the presence and absence of antagonist.

For orientation: EC50 means the midpoint of the concentration-response curve. As a reminder, the IC50 is the concentration at which inhibition is half-maximal.

On to `CC(C)[C@H](NC(=O)[C@@H]1CSSC[C@H](NC(=O)[C@H](CC(=O)O)NC(=O)[C@@H]2CCCN2C(=O)[C@@H](NC(=O)[C@@H](N)CCC(=O)O)[C@@H](C)O)C(=O)N[C@@H](Cc2ccccc2)C(=O)N[C@@H](Cc2c[nH]c3ccccc23)C(=O)N[C@@H](CCCCN)C(=O)N[C@@H](Cc2ccc(O)cc2)C(=O)N1)C(=O)O` [Compound 1, reference compound], for which, in the assay with rat thoracic aorta rings, the concentration for a half-maximal effect (EC50) was determined as 1 nM, the “Aortic Ring contraction pEC50” value came to 9.08 ± 0.25 and the “Aortic Ring contraction Emax (%)” value was found to be 117 ± 7%. Besides, in the assay with rat thoracic aorta rings (listed as hUII), the “Aortic Ring contraction pEC50” value was found to be 8.98±0.21 and the “Aortic Ring contraction Emax (%)” value turned out to be 124±8%. Moreover, in the assay with anaesthetized rats (0.01 μmol/kg i.v.), the “Hemodynamic response to bolus i.v. injection” value was “biphasic hemodynamic response”, the “Time of hypotension nadir” value was about 6 min and the “Time of pressor phase peak” value is about 1 min. In the assay on anaesthetized rats (10 nmol/kg twice, 30 min interval), the “Response to repeated injections” value was “equivalent biphasic responses”. In the assay on anaesthetized rats (URP injected 30 min after hUII, 10 nmol/kg), the “Effect of prior hUII injection on hypotensive effect of URP” value was “significantly reduced”. The “Dose giving the most significant drop in blood pressure” value in the assay with anaesthetized rats (single i.v. injection, 1 to 30 nmol/kg tested) was 10 nmol/kg.
As for `CC(C)[C@H](NC(=O)[C@@H]1CSSC[C@H](NC(=O)[C@H](C)N)C(=O)N[C@@H](Cc2ccccc2)C(=O)N[C@@H](Cc2cccc3ccccc23)C(=O)N[C@@H](CCCCN)C(=O)N[C@@H](Cc2ccc(O)cc2)C(=O)N1)C(=O)O` [Compound 3, H-Ala-Cys-Phe-Nal-Lys-Tyr-Cys-Val-OH], in the assay with rat thoracic aorta rings, the “Agonist behaviour in aortic ring contraction (in words)” value (shortened to “Agonist behaviour”) is recorded as “almost equipotent analog”, the EC50 came to 54 nM, the “Aortic Ring contraction pEC50” value turned out to be 7.27 ± 0.24 and the “Aortic Ring contraction Emax (%)” value was 86 ± 8%.
As for `CC(C)[C@H](NC(=O)[C@@H]1CSSC[C@H](NC(=O)[C@H](C)N)C(=O)N[C@@H](Cc2ccccc2)C(=O)N[C@H](Cc2cccc3ccccc23)C(=O)N[C@@H](CCCCN)C(=O)N[C@@H](Cc2ccc(O)cc2)C(=O)N1)C(=O)O` [Compound 4, [D-1-Nal^4]URP], in the assay on rat thoracic aorta rings, the concentration giving a half-maximal response (EC50) worked out at 825 nM; the “Aortic Ring contraction pEC50” value is 6.08 ± 0.04; the “Aortic Ring contraction Emax (%), maximum efficacy at 10^−5.5M” value is 34%.
For the compound `CC(C)[C@H](NC(=O)[C@@H]1CSSC[C@H](NC(=O)[C@H](C)N)C(=O)N[C@@H](Cc2ccccc2)C(=O)N[C@@H](Cc2ccc(I)cc2)C(=O)N[C@@H](CCCCN)C(=O)N[C@@H](Cc2ccc(O)cc2)C(=O)N1)C(=O)O` [Compound 5, H-Ala-Cys-Phe-Phe(I)-Lys-Tyr-Cys-Val-OH], in assay [1] (versus native peptide), the “Drop in binding affinity on substitution of Trp” value is given as 4 fold.
For `CC(C)[C@H](NC(=O)[C@@H]1CSSC[C@H](NC(=O)[C@H](C)N)C(=O)N[C@@H](Cc2ccccc2)C(=O)N[C@@H](CC2CCCCC2)C(=O)N[C@@H](CCCCN)C(=O)N[C@@H](Cc2ccc(O)cc2)C(=O)N1)C(=O)O` [Compound 6, H-Ala-Cys-Phe-Cha-Lys-Tyr-Cys-Val-OH], in assay [1] (versus compound 5), the “Reduction in binding affinity compared to compound 5” value is given as 3 fold. In addition, in the assay with rat thoracic aorta rings, the “Agonist behaviour” value was “full but weak agonist”; the EC50 is over 1000 nM; the “Aortic Ring contraction pEC50” value was under 6; the “Aortic Ring contraction Emax (%), maximum efficacy at 10^−5.5M” value is 77^d %.
For the compound `CC(C)[C@H](NC(=O)[C@@H]1CSSC[C@H](NC(=O)[C@H](C)N)C(=O)N[C@@H](Cc2ccccc2)C(=O)N[C@H](C(C)(C)C)C(=O)N[C@@H](CCCCN)C(=O)N[C@@H](Cc2ccc(O)cc2)C(=O)N1)C(=O)O` [Compound 8, [D-Tbg^4]URP], the concentration giving a half-maximal response (EC50) in the assay with rat thoracic aorta rings was found to be 262 nM.
`CC(C)[C@H](NC(=O)[C@@H]1CSSC[C@H](NC(=O)[C@H](C)N)C(=O)N[C@@H](Cc2ccccc2)C(=O)N[C@@H](C(c2ccccc2)c2ccccc2)C(=O)N[C@@H](CCCCN)C(=O)N[C@@H](Cc2ccc(O)cc2)C(=O)N1)C(=O)O` [Compound 9, H-Ala-Cys-Phe-Dip-Lys-Tyr-Cys-Val-OH]: in the assay with rat thoracic aorta rings, the “Agonist behaviour” value is on record as “weak UT agonist”; the half-maximal effective concentration (EC50) is over 1000 nM; the “Aortic Ring contraction pEC50” value is on record as under 6; the “Aortic Ring contraction Emax (%), maximum efficacy at 10^−5.5M” value is 23^d %.
As for `CC(C)[C@H](NC(=O)[C@@H]1CSSC[C@H](NC(=O)[C@H](C)N)C(=O)N[C@@H](Cc2ccccc2)C(=O)N2Cc3[nH]c4ccccc4c3C[C@H]2C(=O)N[C@@H](CCCCN)C(=O)N[C@@H](Cc2ccc(O)cc2)C(=O)N1)C(=O)O` [Compound 10, H-Ala-Cys-Phe-Tpi-Lys-Tyr-Cys-Val-OH], the “Binding affinity for UT (in words)” value in assay [1] was “high affinity for UT”. Also, in the assay with rat thoracic aorta rings, the “Agonist behaviour” value is listed as “vasoconstriction comparable to hUII or URP with however a slightly reduced potency” and the “Aortic Ring contraction Emax (%)” value is 139 ± 17%.
Turning to `CC(C)[C@H](NC(=O)[C@@H]1CSSC[C@H](NC(=O)[C@H](C)N)C(=O)N[C@@H](Cc2ccccc2)C(=O)N[C@H]2Cc3c([nH]c4ccccc34)CN(C2=O)[C@@H](CCCCN)C(=O)N[C@@H](Cc2ccc(O)cc2)C(=O)N1)C(=O)O` [Compound 12, H-Ala-Cys-Phe-Aia-Lys-Tyr-Cys-Val-OH], in assay [1], the “Binding affinity for UT (in words)” value is listed as “low binding affinity”. In the assay with rat thoracic aorta rings, the concentration for a half-maximal effect (EC50) came out at 181 nM, the “Aortic Ring contraction pEC50” value was found to be 6.42 ± 0.13 and the “Aortic Ring contraction Emax (%)” value is listed as 51 ± 4%.
In the assay on rat thoracic aorta rings, `CC(C)[C@H](NC(=O)[C@@H]1CSSC[C@H](NC(=O)[C@H](C)N)C(=O)N[C@@H](Cc2ccccc2)C(=O)N[C@@H]2Cc3c([nH]c4ccccc34)CN(C2=O)[C@@H](CCCCN)C(=O)N[C@@H](Cc2ccc(O)cc2)C(=O)N1)C(=O)O` [Compound 13, [D-Aia^4]URP] displayed a 50% effective concentration (EC50) of 159 nM.
In the case of `CC(C)[C@H](NC(=O)[C@@H]1CSSC[C@H](NC(=O)[C@H](C)N)C(=O)N[C@@H](Cc2ccccc2)C(=O)N2CCc3ccccc3[C@@H]2C(=O)N[C@@H](CCCCN)C(=O)N[C@@H](Cc2ccc(O)cc2)C(=O)N1)C(=O)O` [Compound 17, [D-Tiq^4]URP], in the assay on rat thoracic aorta rings, the EC50 was found to be 21 nM, the “Aortic Ring contraction pEC50” value is 7.68 ± 0.17 and the “Aortic Ring contraction Emax (%)” value is 113 ± 7%.
For `CC(C)[C@H](NC(=O)[C@@H]1CSSC[C@H](NC(=O)[C@H](C)N)C(=O)N[C@@H](Cc2ccccc2)C(=O)N2Cc3ccccc3C[C@@H]2C(=O)N[C@@H](CCCCN)C(=O)N[C@@H](Cc2ccc(O)cc2)C(=O)N1)C(=O)O` [Compound 19, [D-Tic^4]URP] the same measures were 259 nM, 6.08 ± 0.04 and 128 ± 12%.
As for `CC(C)[C@H](NC(=O)[C@@H]1CSSC(C)(C)[C@H](NC(=O)[C@H](C)N)C(=O)N[C@@H](Cc2ccccc2)C(=O)N2CCc3ccccc3[C@H]2C(=O)N[C@@H](CCCCN)C(=O)N[C@@H](Cc2ccc(O)cc2)C(=O)N1)C(=O)O` [Compound 20, H-Ala-Pen-Phe-Tiq-Lys-Tyr-Cys-Val-OH], the IC50 in assay [1] (125I-hUII 0.2 nM, CHO-UT cells, 95% confidence limits in parentheses, read-out: Binding IC50) is over 10 µM.
Consider “[Pro^7]hUII: hUII in which the Trp residue is replaced by a Pro moiety (ETPDCFPKYCV-OH; disulfide 5-10 (inferred))”, for which, in the assay with rat thoracic aorta rings, the “Agonist behaviour” value was “weak agonistic effect” and the “Aortic Ring contraction Emax (%), maximum efficacy at 10^−5.5M” value was 69%.
